From patent US20250127780A1, “IMIDAZO[4,5-B]PYRIDINE AND PYRAZOLO[1,5-A]PYRIMIDINE DERIVATIVES AS SIK MODULATORS FOR THE TREATMENT OF RHEUMATOID ARTHRITIS” (Hoffmann-La Roche Inc., priority 2022, published 2025)

Legend:
Format in all cases: biochemical
SIK1 = SIK1 (Homo sapiens (Human), UniProt P57059); assay: Phosphorylation assay SIK1 (RapidFire mass spectrometry); conditions: 5 nM SIK1, CHK-peptide, ATP, 30 min pre-incubation, 45 min incubation; read-out: SIK1 RF IC50
Procedure: (§1) In the presence of SIK2 (resp. SIK1 or SIK3) and ATP the CHK-peptide ([…] with C-terminal arginine amide modification) were phosphorylated at one of the four feasible serine's. Only one phosphorylation is observed under the assay conditions. 60 nl of each compound dilution series (12 point; dilution factor 3, generally 30 μM to 170 pM) in DMSO were transferred by acoustic dispensing to the assay plate and 30 minutes pre-incubated (ambient temperature) after the addition of 5 μl SIK1 (5 nM) resp. 5 μl SIK2 (0.5 nM) or 7 μl SIK3 (1.5 nM) in assay-buffer (12.5 mM HEPES (pH 7.0), 10 mM magnesium acetate, 0.005% BSA). 10 μM CHK-peptide solution and 5 μl of 100 μM ATP for SIK1 & SIK2 resp. 3 μl for SIK3 in assay-buffer were added and incubated ambient for 45 minutes. 40 μl of 0.125% formic acid in water were added to quench the reaction. RapidFire (RF) Mass Spectrometry was utilized for data generation as described below. The multiple charged species (3-5 charges) for the phosphorylated and non-phosphorylated form measured by MRM (Multiple Reaction Monitoring; API5000 or 6500+) or EIC (Extracted Ion Current; QToF) were summed up and the ratio calculated (sum phosphorylated species/sum all species) for data evaluation. Normalization was performed by Genedata software based on the non-inhibition control DMSO and the commercially available SIK inhibitor @1 μM YKL-05-099 (CAS number 1936529-65-5). The results of the assay are expressed in half-maximal inhibitory concentrations (IC50s) and are summarized below in Table 1.
(§2) Samples were aspirated by vacuum for max. 600 ms and loaded to C4-cartridge (Agilent; #G9203A) for 3000 ms@1.5 ml/min with 0.1% formic acid in water. Afterwards samples were transferred to the API5000 (API6500+) or QToF mass spectrometer for 4000 ms@1.25 ml/min with 90% acetonitrile; 10% water; 0.007% TFA; 0.093 formic acid. The cartridge was reconditioned for additional 500 ms with 0.1% formic acid in water.
(§3) All MS analyses using the following MS-setup in MRM mode: Electrospray positive; Ion Spray Voltage: 4000V; Temperature: 550° C.; Collision Gas: 5; Curtain Gas: 15; Gas 1: 40; Gas 2: 42; EP: 10. DP=declustering potential; CE=collision energy; CXP=cell exit potential.
(§4) All MS analyses using the following MS-setup in Mode MS: Dual AJS Electrospray positive; VCap: 3000V; Drying & Sheath gas: 340° C.@81/min; Nebulizer: 60 psig; Nozzle Voltage: 2000V; Fragmentor: 130V; Skimmer: 35V; Oct1 RF Vpp: 700V; Ref masses on@5spectra/s

SIK2 = SIK2 (Homo sapiens (Human), UniProt Q9H0K1); assay: Phosphorylation assay SIK2 (RapidFire mass spectrometry); conditions: 0.5 nM SIK2, CHK-peptide, ATP, 30 min pre-incubation, 45 min incubation; read-out: SIK2 RF IC50
SIK2, sequence (Q9H0K1 whole entry): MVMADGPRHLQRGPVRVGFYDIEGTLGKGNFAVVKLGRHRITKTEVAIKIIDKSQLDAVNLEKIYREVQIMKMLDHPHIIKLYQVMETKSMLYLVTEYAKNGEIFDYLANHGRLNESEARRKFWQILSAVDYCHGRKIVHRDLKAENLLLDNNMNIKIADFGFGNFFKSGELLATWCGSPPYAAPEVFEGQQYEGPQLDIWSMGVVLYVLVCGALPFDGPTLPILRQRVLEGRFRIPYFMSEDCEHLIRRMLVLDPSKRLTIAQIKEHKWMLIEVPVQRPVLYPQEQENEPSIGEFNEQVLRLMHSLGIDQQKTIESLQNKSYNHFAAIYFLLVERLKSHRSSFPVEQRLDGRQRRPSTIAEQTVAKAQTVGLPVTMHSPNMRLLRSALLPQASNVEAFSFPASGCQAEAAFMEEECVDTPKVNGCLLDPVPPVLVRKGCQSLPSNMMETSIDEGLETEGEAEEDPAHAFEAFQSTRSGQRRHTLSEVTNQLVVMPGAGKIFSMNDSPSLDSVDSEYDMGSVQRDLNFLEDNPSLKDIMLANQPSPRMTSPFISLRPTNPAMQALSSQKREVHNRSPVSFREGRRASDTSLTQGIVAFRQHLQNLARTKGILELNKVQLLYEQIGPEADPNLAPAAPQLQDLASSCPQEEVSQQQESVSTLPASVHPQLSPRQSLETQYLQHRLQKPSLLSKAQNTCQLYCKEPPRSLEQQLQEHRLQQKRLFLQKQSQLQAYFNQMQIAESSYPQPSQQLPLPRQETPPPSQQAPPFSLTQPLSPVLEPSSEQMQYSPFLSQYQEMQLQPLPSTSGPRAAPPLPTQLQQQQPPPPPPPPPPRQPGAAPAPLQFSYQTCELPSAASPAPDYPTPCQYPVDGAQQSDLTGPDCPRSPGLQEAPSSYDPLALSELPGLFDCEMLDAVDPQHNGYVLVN
Procedure: as §1, §2, §3, §4

SIK3 = SIK3 (Homo sapiens (Human), UniProt Q9Y2K2); assay: Phosphorylation assay SIK3 (RapidFire mass spectrometry); conditions: 1.5 nM SIK3, CHK-peptide, ATP, 30 min pre-incubation, 45 min incubation; read-out: SIK3 RF IC50
SIK3, sequence (Q9Y2K2 whole entry): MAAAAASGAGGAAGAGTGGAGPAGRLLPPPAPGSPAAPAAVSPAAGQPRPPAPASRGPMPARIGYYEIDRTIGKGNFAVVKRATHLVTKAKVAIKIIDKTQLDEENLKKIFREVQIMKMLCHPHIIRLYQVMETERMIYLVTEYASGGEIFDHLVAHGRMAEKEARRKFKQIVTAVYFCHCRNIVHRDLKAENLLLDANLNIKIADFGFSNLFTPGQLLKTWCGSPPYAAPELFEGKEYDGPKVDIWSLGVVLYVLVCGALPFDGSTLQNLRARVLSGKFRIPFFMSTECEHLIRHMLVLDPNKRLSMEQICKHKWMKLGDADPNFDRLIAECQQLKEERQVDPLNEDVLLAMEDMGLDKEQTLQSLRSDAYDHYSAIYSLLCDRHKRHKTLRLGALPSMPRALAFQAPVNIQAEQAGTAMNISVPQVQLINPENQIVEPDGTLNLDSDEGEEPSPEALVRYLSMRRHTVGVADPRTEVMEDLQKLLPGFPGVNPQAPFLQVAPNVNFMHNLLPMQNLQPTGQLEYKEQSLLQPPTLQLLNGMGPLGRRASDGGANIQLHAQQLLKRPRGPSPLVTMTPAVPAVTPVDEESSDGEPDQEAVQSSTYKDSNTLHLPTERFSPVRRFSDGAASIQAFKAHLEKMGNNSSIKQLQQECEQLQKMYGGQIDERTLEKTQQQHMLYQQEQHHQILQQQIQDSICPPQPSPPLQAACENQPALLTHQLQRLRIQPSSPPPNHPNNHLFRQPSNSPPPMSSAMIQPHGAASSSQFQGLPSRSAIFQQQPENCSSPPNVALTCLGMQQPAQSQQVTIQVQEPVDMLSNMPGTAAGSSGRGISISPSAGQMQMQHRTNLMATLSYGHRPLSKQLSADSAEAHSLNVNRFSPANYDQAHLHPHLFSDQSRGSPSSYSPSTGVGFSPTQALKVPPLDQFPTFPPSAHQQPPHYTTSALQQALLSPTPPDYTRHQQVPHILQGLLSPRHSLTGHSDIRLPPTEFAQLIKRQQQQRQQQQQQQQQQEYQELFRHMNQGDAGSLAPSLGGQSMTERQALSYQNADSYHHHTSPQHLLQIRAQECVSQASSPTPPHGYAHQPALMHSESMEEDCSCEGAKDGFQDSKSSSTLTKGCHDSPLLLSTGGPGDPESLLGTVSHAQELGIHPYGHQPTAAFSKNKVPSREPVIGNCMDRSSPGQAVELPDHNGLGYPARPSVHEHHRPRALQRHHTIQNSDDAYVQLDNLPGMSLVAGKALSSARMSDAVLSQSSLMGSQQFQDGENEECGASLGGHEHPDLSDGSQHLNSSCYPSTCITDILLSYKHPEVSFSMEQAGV
Procedure: as §1, §2, §3, §4

SIK1, sequence (P57059 whole entry): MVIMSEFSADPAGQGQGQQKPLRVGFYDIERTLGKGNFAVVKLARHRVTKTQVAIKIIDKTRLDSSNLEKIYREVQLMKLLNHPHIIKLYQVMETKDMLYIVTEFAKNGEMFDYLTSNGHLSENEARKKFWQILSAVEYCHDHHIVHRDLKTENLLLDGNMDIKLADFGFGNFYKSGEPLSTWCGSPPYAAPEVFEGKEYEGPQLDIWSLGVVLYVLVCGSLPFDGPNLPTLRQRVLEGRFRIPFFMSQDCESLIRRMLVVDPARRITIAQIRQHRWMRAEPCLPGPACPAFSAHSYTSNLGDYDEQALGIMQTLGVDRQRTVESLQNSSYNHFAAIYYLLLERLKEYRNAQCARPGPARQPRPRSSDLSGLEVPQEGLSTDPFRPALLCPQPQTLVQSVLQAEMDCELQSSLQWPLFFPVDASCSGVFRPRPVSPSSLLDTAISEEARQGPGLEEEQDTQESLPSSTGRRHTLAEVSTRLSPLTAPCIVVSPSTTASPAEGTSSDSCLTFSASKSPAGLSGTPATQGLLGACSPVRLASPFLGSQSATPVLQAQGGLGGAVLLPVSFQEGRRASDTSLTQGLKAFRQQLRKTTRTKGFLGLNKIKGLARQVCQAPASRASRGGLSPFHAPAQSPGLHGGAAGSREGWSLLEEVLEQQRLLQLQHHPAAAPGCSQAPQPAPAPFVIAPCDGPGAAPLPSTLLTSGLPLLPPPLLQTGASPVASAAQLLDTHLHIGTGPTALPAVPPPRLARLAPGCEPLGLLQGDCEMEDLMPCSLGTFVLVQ

| SMILES | IC50 (SIK1) [nM] | IC50 (SIK2) [nM] | IC50 (SIK3) [nM] |
| --- | --- | --- | --- |
| Cc1cc(C(F)F)nn1-c1cc(-n2cnc3cc(Nc4cccnn4)cnc32)ccc1C(C)O (stereo not drawn) [Example 3, 1-[2-[3-(Difluoromethyl)-5-methyl-pyrazol-1-yl]-4-[6-(pyridazin-3-ylamino)imidazo[4,5-b]pyridin-3-yl]phenyl]ethanol] | 16600 | 207 | 27 |
| Cc1ccc(Nc2cnc3c(-c4ccc(C(C)O)c(-n5nc(C(F)F)cc5C)c4)cnn3c2)nn1 (stereo not drawn) [Example 8, 1-[2-[3-(Difluoromethyl)-5-methyl-pyrazol-1-yl]-4-[6-[(6-methylpyridazin-3-yl)amino]pyrazolo[1,5-a]pyrimidin-3-yl]phenyl]ethanol] | ≥ 30000 | 52 | 4 |
| Cc1cc(C(=O)N(C)C)c(Nc2cnc3c(c2)ncn3-c2ccc(C#N)c(-n3nc(OC(F)F)cc3C)c2)nn1 [Example 6, 3-[[3-[4-Cyano-3-[3-(difluoromethoxy)-5-methyl-pyrazol-1-yl]phenyl]imidazo[4,5-b]pyridin-6-yl]amino]-N,N,6-trimethyl-pyridazine-4-carboxamide] | ≥ 30000 | 152 | 366 |

The remaining lines, values ahead:

| IC50 (SIK1) [nM] | IC50 (SIK2) [nM] | IC50 (SIK3) [nM] | SMILES |
| --- | --- | --- | --- |
| 18600 | 7 | 207 | COc1nc2c(cc1Nc1nnc(C)cc1C(=O)N(C)C)ncn2-c1ccc(C#N)c(-n2nc(OC(F)F)cc2C)c1 [Example 4, 3-[[3-[4-cyano-3-[3-(difluoromethoxy)-5-methyl-pyrazol-1-yl]phenyl]-5-methoxy-imidazo[4,5-b]pyridin-6-yl]amino]-N,N,6-trimethyl-pyridazine-4-carboxamide] |
| 14600 | 106 | 12 | Cc1ccc(Oc2cnc3c(-c4ccc(C(C)O)c(-n5nc(C#N)cc5C)c4)cnn3c2)nn1 (stereo not drawn) [Example 5, 1-[2-(1-Hydroxyethyl)-5-[6-(6-methylpyridazin-3-yl)oxypyrazolo[1,5-a]pyrimidin-3-yl]phenyl]-5-methylpyrazole-3-carbonitrile] |
| 616 | 1 | 0.3 | Cc1ccc(Nc2cnc3c(-c4ccc(C(C)O)c(-n5nc(C#N)cc5C)c4)cnn3c2)nn1 (stereo not drawn) [Example 2, 1-[2-(1-Hydroxyethyl)-5-[6-[(6-methylpyridazin-3-yl)amino]pyrazolo[1,5-a]pyrimidin-3-yl]phenyl]-5-methyl-pyrazole-3-carbonitrile] |
| 6010 | 21 | 6 | Cc1ccc(Nc2cnc3c(c2)ncn3-c2cc(F)c(C(C)O)c(-n3nc(C#N)cc3C)c2)nn1 (stereo not drawn) [Example 7, 1-[3-Fluoro-2-(1-hydroxyethyl)-5-[6-[(6-methylpyridazin-3-yl)amino]imidazo[4,5-b]pyridin-3-yl]phenyl]-5-methyl-pyrazole-3-carbonitrile] |
| 2800 | 16 | 2 | Cc1ccc(Nc2cnc3c(c2)ncn3-c2ccc(C(C)O)c(-n3nc(C#N)cc3C)c2)nn1 (stereo not drawn) [Example 1, 1-[2-(1-Hydroxyethyl)-5-[6-[(6-methylpyridazin-3-yl)amino]imidazo[4,5-b]pyridin-3-yl]phenyl]-5-methyl-pyrazole-3-carbonitrile] |
